Source: patent publication US12227496B2 (BRISTOL-MYERS SQUIBB COMPANY, priority 2019, dated 2025)

Target: T1, human FXR (Homo sapiens, UniProt Q96RI1)
T1 construct: expressed in transfected cells; host or cells: HEK293 cells stably carrying a 5xGal4-response-element firefly luciferase reporter, transiently transfected with pcDNA3.1-Gal4-FXR
T1 sequence (Q96RI1 262-486 limits assumed): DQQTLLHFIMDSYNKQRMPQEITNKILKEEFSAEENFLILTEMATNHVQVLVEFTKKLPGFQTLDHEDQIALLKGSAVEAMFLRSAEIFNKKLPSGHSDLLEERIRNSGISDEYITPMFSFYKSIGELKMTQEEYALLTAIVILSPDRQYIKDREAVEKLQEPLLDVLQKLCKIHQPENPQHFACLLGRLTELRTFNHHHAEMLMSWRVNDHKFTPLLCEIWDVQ
Assay: transient human FXR/Gal4-luciferase reporter assay
Format: cell-based
Details: Gal4-hFXR LBD fusion, luciferase reporter in HEK293 cells; response relative to 8 μM GW-4064
In short: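 HEK293 cells stably carrying a 5×Gal4-response-element firefly luciferase reporter were transiently transfected with Gal4-hFXR. They were then incubated overnight at 37 °C with compound serial dilutions in medium containing 10% charcoal/dextran-stripped FBS. Luminescence was read after Steady-Glo addition.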

SMILES | EC50 [nM]
O=C(C1CCCOC1)N(CC12CCC(c3nc(C4CC4)cs3)(CC1)CC2)c1cccc(-c2nc(C3CC3)no2)c1 (racemic) [Example 66, N-(3-(3-cyclopropyl-1,2,4-oxadiazol-5-yl)phenyl)-N-((4-(4-cyclopropylthiazol-2-yl)bicyclo[2.2.2]octan-1-yl)methyl)tetrahydro-2H-pyran-3-carboxamide] | 1250
CCc1noc(-c2cccc(N(C(=O)C3CCCCC3)C(C)C34CCC(c5nc(C)no5)(CC3)CC4)c2)n1 (single isomer, unassigned) [Example 70, N-(3-(3-ethyl-1,2,4-oxadiazol-5-yl)phenyl)-N-(1-(4-(3-methyl-1,2,4-oxadiazol-5-yl)bicyclo[2.2.2]octan-1-yl)ethyl)cyclohexanecarboxamide] | 1500
COc1cc(-c2cccc(N(CC34CCC(c5nc(C6CC6)no5)(CC3)CC4)C(=O)C3CCCCC3)c2)ccn1 [Example 75, N-((4-(3-cyclopropyl-1,2,4-oxadiazol-5-yl)bicyclo[2.2.2]octan-1-yl)methyl)-N-(3-(2-methoxypyridin-4-yl)phenyl)cyclohexane carboxamide] | 129
CC(C)(C)c1noc(C23CCC(CN(C(=O)C4CCC(F)(F)CC4)c4cccc(-c5cnn6cc(Cl)cnc56)c4)(CC2)CC3)n1 [Example 141, N-((4-(3-(tert-butyl)-1,2,4-oxadiazol-5-yl)bicyclo[2.2.2]octan-1-yl)methyl)-N-(3-(6-chloropyrazolo[1,5-a]pyrimidin-3-yl)phenyl)-4,4-difluorocyclohexane-1-carboxamide] | 549
COc1cccc(-c2cccc(N(C(=O)C3CCCCC3)C(C)C34CCC(c5nc(C)no5)(CC3)CC4)c2)c1 (single isomer, unassigned) [Example 94, N-(3′-methoxy-[1,1′-biphenyl]-3-yl)-N-(1-(4-(3-methyl-1,2,4-oxadiazol-5-yl)bicyclo[2.2.2]octan-1-yl)ethyl)cyclohexanecarboxamide] | 3940
COc1cc(-c2cccc(N(CC34CCC(c5nnc(C)s5)(CC3)CC4)C(=O)C3CCOCC3)c2)ccn1 [Example 81, N-(3-(2-methoxypyridin-4-yl)phenyl)-N-((4-(5-methyl-1,3,4-thiadiazol-2-yl)bicyclo[2.2.2]octan-1-yl)methyl)tetrahydro-2H-pyran-4-carboxamide] | 2500
O=C(C1CCCOC1)N(CC12CCC(c3nc(C4CC4)no3)(CC1)CC2)c1cccc(-c2nnc(C3CC3)o2)c1 (racemic) [Example 55, N-((4-(3-cyclopropyl-1,2,4-oxadiazol-5-yl)bicyclo[2.2.2]octan-1-yl)methyl)-N-(3-(5-cyclopropyl-1,3,4-oxadiazol-2-yl)phenyl)tetrahydro-2H-pyran-3-carboxamide] | 929
CC(C)(C)c1nnc(C23CCC(CN(C(=O)C4CCC(F)(F)CC4)c4cccc(-c5nc(C6CC6)no5)c4)(CC2)CC3)o1 [Example 123, N-((4-(5-(tert-Butyl)-1,3,4-oxadiazol-2-yl)bicyclo[2.2.2]octan-1-yl)methyl)-N-(3-(3-cyclopropyl-1,2,4-oxadiazol-5-yl)phenyl)-4,4-difluorocyclohexane-1-carboxamide] | 280
CC(F)(F)c1nc(C23CCC(CN(C(=O)C4CCC(O)(C(F)(F)F)CC4)c4cccc(-c5cc(C6CC6)on5)c4)(CC2)CC3)no1 (stereo not shown) [Example 157, N-(3-(5-cyclopropylisoxazol-3-yl)phenyl)-N-((4-(5-(1,1-difluoroethyl)-1,2,4-oxadiazol-3-yl)bicyclo[2.2.2]octan-1-yl)methyl)-4-hydroxy-4-(trifluoromethyl)cyclohexane-1-carboxamide] | 242
O=C(C1CCOCC1)N(CC12CCC(c3nc(C4CC4)no3)(CC1)CC2)c1cccc(-c2nnc(C3CC3)o2)c1 [Example 54, N-((4-(3-cyclopropyl-1,2,4-oxadiazol-5-yl)bicyclo[2.2.2]octan-1-yl)methyl)-N-(3-(5-cyclopropyl-1,3,4-oxadiazol-2-yl)phenyl)tetrahydro-2H-pyran-4-carboxamide] | 373
Cc1noc(-c2cccc(N(CC34CCC(c5nc(C)no5)(CC3)CC4)C(=O)C3CCCCC3)c2)n1 [Example 1, N-((4-(3-methyl-1,2,4-oxadiazol-5-yl)bicyclo[2.2.2]octan-1-yl)methyl)-N-(3-(3-methyl-1,2,4-oxadiazol-5-yl)phenyl)cyclohexanecarboxamide] | 736
CC(C)(O)c1coc(-c2cccc(N(CC34CCC(c5nc(C6CC6)no5)(CC3)CC4)C(=O)C3CCCCC3)c2)n1 [Example 21, N-((4-(3-cyclopropyl-1,2,4-oxadiazol-5-yl)bicyclo[2.2.2]octan-1-yl)methyl)-N-(3-(4-(2-hydroxypropan-2-yl)oxazol-2-yl)phenyl)cyclohexanecarboxamide] | 194
CC(C)(C)c1nnc(C23CCC(CN(C(=O)C4CCC(F)(F)CC4)c4cccc(-c5cc(C6CC6)on5)c4)(CC2)CC3)o1 [Example 124, N-((4-(5-(tert-Butyl)-1,3,4-oxadiazol-2-yl)bicyclo[2.2.2]octan-1-yl)methyl)-N-(3-(5-cyclopropylisoxazol-3-yl)phenyl)-4,4-difluorocyclohexane-1-carboxamide] | 467
O=C(C1CCCOC1)N(CC12CCC(c3nc(C4CC4)no3)(CC1)CC2)c1cccc(-c2cnc(C3CC3)o2)c1 (racemic) [Example 25, N-((4-(3-cyclopropyl-1,2,4-oxadiazol-5-yl)bicyclo[2.2.2]octan-1-yl)methyl)-N-(3-(2-cyclopropyloxazol-5-yl)phenyl)tetrahydro-2H-pyran-3-carboxamide] | 74
O=C(C1CCC(F)(F)CC1)N(CC12CCC(c3nc(C4CC4)no3)(CC1)CC2)c1cccc(-c2nc(C3CC3)no2)c1 [Example 14, N-((4-(3-cyclopropyl-1,2,4-oxadiazol-5-yl)bicyclo[2.2.2]octan-1-yl)methyl)-N-(3-(3-cyclopropyl-1,2,4-oxadiazol-5-yl)phenyl)-4,4-difluorocyclohexane-1-carboxamide] | 272
COC(=O)C1CC1c1cccc(N(CC23CCC(c4nc(C)no4)(CC2)CC3)C(=O)C2CCCCC2)c1 (single isomer, unassigned) [Example 102, Methyl 2-(3-(N-((4-(3-methyl-1,2,4-oxadiazol-5-yl)bicyclo[2.2.2]octan-1-yl)methyl)cyclohexanecarboxamido)phenyl)cyclopropane-1-carboxylate] | 518
CCOc1cc(-c2cccc(N(CC34CCC(c5nc(C6CC6)no5)(CC3)CC4)C(=O)C3CCCCC3)c2)ccn1 [Example 78, N-((4-(3-cyclopropyl-1,2,4-oxadiazol-5-yl)bicyclo[2.2.2]octan-1-yl)methyl)-N-(3-(2-ethoxypyridin-4-yl)phenyl)cyclohexane carboxamide] | 181
CCOc1ncc(-c2cccc(N(CC34CCC(c5nc(C(C)(C)C)no5)(CC3)CC4)C(=O)C3CCOCC3)c2)cn1 [Example 87, N-((4-(3-(tert-butyl)-1,2,4-oxadiazol-5-yl)bicyclo[2.2.2]octan-1-yl)methyl)-N-(3-(2-ethoxypyrimidin-5-yl)phenyl)tetrahydro-2H-pyran-4-carboxamide] | 274
COCc1coc(-c2cccc(N(CC34CCC(c5nc(C6CC6)no5)(CC3)CC4)C(=O)C3CCOCC3)c2)n1 [Example 53, N-((4-(3-cyclopropyl-1,2,4-oxadiazol-5-yl)bicyclo[2.2.2]octan-1-yl)methyl)-N-(3-(4-(methoxymethyl)oxazol-2-yl)phenyl)tetrahydro-2H-pyran-4-carboxamide] | 189
